Test system: corneal sensitivity
Test: First in human study, esthesiometry assessment (Part 3)
Assay type: in vivo
Details: single eye drop; for anesthetic effect on the cornea: healthy subjects
Description: Part 3 was an esthesiometry assessment to evaluate the anesthetic properties of compound I. Part 3 of the study had four arms, with compound I, vehicle, tetracaine (0.5% ophthalmic solution, used as a positive control) and diclofenac sodium (0.1% ophthalmic solution, used as the active NSAID comparator). Ocular anesthetic was selected because of its established anesthetic effect; however it is not the standard of care due to its negative effect on wound healing. NSAID is the current standard of care for corneal pain after PRK with minimal anesthetic but significant pain control properties. Vehicle eye drops were used as a negative control to enable better determination of the potential anesthetic effect. Twelve healthy subjects, who met the eligibility criteria, were randomized to receive a single eye drop of 4 study treatments, each during 1 of 4 different study days (Days 1, 4, 7 and 10). Each subject was randomized to receive the study treatment according to one of the following four sequences: • Sequence 1: Anesthetic, NSAID, compound I 2.5%, Vehicle • Sequence 2: NSAID, Vehicle, Anesthetic, compound I 2.5% • Sequence 3: Vehicle, compound I 2.5%, NSAID, Anesthetic • Sequence 4: compound I 2.5%, Anesthetic, Vehicle, NSAID
The first-in-human study further evaluated potential anesthetic effect of topical ocular 2.5% compound I by esthesiometry testing, i.e. measurement of the filament length (cm) when the threshold of cornea touch is perceived.

SMILES: O=C(O)Cc1ccccc1Nc1c(Cl)cccc1Cl [diclofenac 0.1%, diclofenac sodium]
- anesthetic effect on the cornea: no anesthetic effect

SMILES: CCCCNc1ccc(C(=O)OCCN(C)C)cc1 [tetracaine 0.5%, tetracaine]
- duration of action of anesthetic effect: approximately 10 minutes
- anesthetic effect on the cornea: had an anesthetic effect
